Assay results as given in BindingDB's records for doi:10.7270/Q2NG4P21 (Nmmlsc, 2009).

Target: T1, Bcl-2-like protein 10 [11-204] (Homo sapiens, UniProt Q9HD36)
T1 construct: 11-204
T1 sequence (Q9HD36 whole entry): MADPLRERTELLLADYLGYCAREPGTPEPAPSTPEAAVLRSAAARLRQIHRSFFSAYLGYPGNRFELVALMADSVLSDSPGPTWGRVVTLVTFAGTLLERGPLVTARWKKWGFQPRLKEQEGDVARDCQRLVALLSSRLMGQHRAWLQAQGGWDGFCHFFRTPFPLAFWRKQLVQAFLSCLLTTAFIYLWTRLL
Assay: Bcl-B Bim peptide interaction hit potency – biochemical, dose response, multiplexed HTS hits, confirmation (AID 2077)
Details: not given

Going from `CCN(CC)c1ccc(NC(=O)c2ccccc2Br)cc1S(=O)(=O)Nc1ccccc1OC` to `CC(=O)Nc1ccc(-n2cc(-c3ccccc3)[nH]c2=S)cc1` [MLS001001946], the EC50 falls from 8.66 µM to 0.92 µM (9.4-fold). The second is the more potent here.

Compared with `COc1ccc(N2C(=O)C(Cl)=C(Oc3cccc(OC)c3)C2=O)cc1` [3-chloro-4-(3-methoxyphenoxy)-1-(4-methoxyphenyl)-1H-pyrrole-2,5-dione], `O=C1C(=Cc2ccco2)NC(=S)N1c1ccccc1` [(5E)-5-(furan-2-ylmethylidene)-3-phenyl-2-sulfanylideneimidazolidin-4-one] is 4.8-fold higher in EC50: 0.61 µM for the first, 2.9 µM for the second. The first is the more potent here.

Going from `O=c1c2c(n3nnnc3n1Cc1ccccc1)-c1ccccc1CC21CCCC1` [MLS000030575] to `O=C1NC(=O)C2(Cc3c(nc4ccccn4c3=O)N3CCCCCC32)C(=O)N1Cc1ccccc1` (centres undefined) [MLS000083668], the EC50 rises from 3.57 µM to 6.4 µM (1.8-fold).

Going from `O=C(Nc1nnc(COc2ccc(Cl)cc2)s1)c1ccco1` [N-[5-[(4-chloranylphenoxy)methyl]-1,3,4-thiadiazol-2-yl]furan-2-carboxamide] to `Cc1ccc(C=NNC(=O)CSc2nnc(-c3ccc(Cl)cc3)n2-c2ccccc2)o1` [SMR000218122], the EC50 rises from 1.46 µM to 16.4 µM (11-fold). The first is the more potent here.

`S=c1[nH]cc(-c2ccccc2)n1-c1ccccc1` [SMR000196363] showed an EC50 of 0.32 µM.

Same assay, conditions: inactive by the depositor's call

Going from `O=c1[nH]c(O)c(Cc2ccc(-c3cc(Cl)ccc3[N+](=O)[O-])o2)c(=O)[nH]1` to `Cc1cc(-c2cc(-c3ccc(Cl)cc3)nc(N)c2C#N)co1` [2-azanyl-6-(4-chlorophenyl)-4-(5-methylfuran-3-yl)pyridine-3-carbonitrile], the EC50 falls from 36.5 µM to 15.2 µM (2.4-fold).

`O=C(NCc1ccccc1)c1ccc2nc(-c3ccco3)c(-c3ccco3)nc2c1` [2,3-bis(furan-2-yl)-N-(phenylmethyl)quinoxaline-6-carboxamide] and `COc1ccccc1-n1c(-c2ccccc2)c[nH]c1=S` [MLS001007615] are within 1.5-fold of each other in EC50: 31.6 µM for the first, 24.4 µM for the second.

`Clc1nc(NCc2cccnc2)nc(N2CCOCC2)n1` [MLS000121154] was tested, and the EC50 was 13.5 µM.
